According to patent publication US20240245793A1, “PSD-95 INHIBITORS AND USES THEREOF” (priority 2021, published 2024):
Where two headings read alike, the source gives them in different places.

Molecular target: T1, plasmin (Homo sapiens, UniProt P00747)
T1 construct: Tissue plasminogen factor (tPA), which generates plasmin from plasminogen
Assay: In vitro plasmin stability assay
Type: in vitro ADME
Details: for half-life: read-out: T1/2
Experimental: At selected time points during the incubation, the ligands were extracted from 80 μL of assay matrix by treatment with 80 μL of 50% acetonitrile (ACN). The samples were filtered and analysed by UPLC to determine the amount of ligand remaining. LC-MS analysis was performed to confirm ligand integrity and identify cleavage sites.

T1 sequence (P00747 581-810 limits assumed, species assumed): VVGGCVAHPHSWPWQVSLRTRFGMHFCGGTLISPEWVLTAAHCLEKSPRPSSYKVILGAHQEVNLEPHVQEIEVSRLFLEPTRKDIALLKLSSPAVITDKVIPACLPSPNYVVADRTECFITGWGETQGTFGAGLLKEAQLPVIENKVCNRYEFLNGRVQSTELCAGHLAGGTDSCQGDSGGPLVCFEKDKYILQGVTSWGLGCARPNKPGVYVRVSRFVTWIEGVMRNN
T1 sequence (P00747 97-580 partner limits assumed, species assumed): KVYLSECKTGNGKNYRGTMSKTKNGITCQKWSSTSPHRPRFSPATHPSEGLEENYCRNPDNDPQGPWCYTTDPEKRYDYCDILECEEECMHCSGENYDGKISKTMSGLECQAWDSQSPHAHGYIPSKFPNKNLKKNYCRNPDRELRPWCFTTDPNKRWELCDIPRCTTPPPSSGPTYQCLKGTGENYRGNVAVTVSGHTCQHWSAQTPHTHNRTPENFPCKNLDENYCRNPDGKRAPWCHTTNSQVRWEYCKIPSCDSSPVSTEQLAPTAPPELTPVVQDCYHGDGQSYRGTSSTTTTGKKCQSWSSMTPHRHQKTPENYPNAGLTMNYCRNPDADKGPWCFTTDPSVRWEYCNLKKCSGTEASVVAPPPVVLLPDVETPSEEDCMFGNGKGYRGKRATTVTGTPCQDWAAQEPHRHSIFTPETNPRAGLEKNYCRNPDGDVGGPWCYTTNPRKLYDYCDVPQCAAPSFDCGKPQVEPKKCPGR

| Compound | half-life at 100 μM (isolated enzyme plasmin) [h] | half-life (isolated enzyme plasmin) [h] | half-life [h] |
| --- | --- | --- | --- |
| CC[C@H](C)[C@H](NC(=O)CCOCCOCCN(CCOCCOCCC(=O)N[C@H](C(=O)N[C@@H](CO)C(=O)N[C@H](C(=O)N[C@@H](CC(=O)O)C(=O)N[C@H](C(=O)O)C(C)C)[C@@H](C)O)[C@@H](C)CC)C(=O)[C@H](CCCNC(=N)N)NC(=O)[C@H](CCCNC(=N)N)NC(=O)[C@H](CCCNC(=N)N)NC(=O)[C@H](CCCNC(=N)N)NC(=O)[C@H](CCCNC(=N)N)NC(=O)[C@H](CCCNC(=N)N)NC(=O)[C@H](CCCNC(=N)N)NC(=O)[C@H](CCCNC(=N)N)NC(=O)[C@H](CCCNC(=N)N)NC(C)=O)C(=O)N[C@@H](CO)C(=O)N[C@H](C(=O)N[C@@H](CC(=O)O)C(=O)N[C@H](C(=O)O)C(C)C)[C@@H](C)O [Compound 31] | 23.4 ± 2.07 |  |  |
| CC(=O)N[C@@H](CCCNC(=N)N)C(=O)N[C@@H](CCCNC(=N)N)C(=O)N[C@@H](CCCNC(=N)N)C(=O)N[C@@H](CCCNC(=N)N)C(=O)N[C@@H](CCCNC(=N)N)C(=O)N[C@@H](CCCNC(=N)N)C(=O)N[C@@H](CCCNC(=N)N)C(=O)N[C@@H](CCCNC(=N)N)C(=O)N[C@@H](CCCNC(=N)N)C(=O)N(CCOCCOCCC(=O)N[C@@H](CCCCN)C(=O)N[C@@H](CCC(=O)O)C(=O)N[C@H](C(=O)N[C@H](C(=O)N[C@H](C(=O)O)C(C)C)C(C)C)[C@@H](C)O)CCOCCOCCC(=O)N[C@@H](CCCCN)C(=O)N[C@@H](CCC(=O)O)C(=O)N[C@H](C(=O)N[C@H](C(=O)N[C@H](C(=O)O)C(C)C)C(C)C)[C@@H](C)O [Compound 27] | 25.5 ± 9.63 |  |  |
| CC[C@H](C)[C@H](NC(=O)CCOCCOCCN(CCOCCOCCC(=O)N[C@H](C(=O)N[C@@H](CCC(=O)O)C(=O)N[C@H](C(=O)N[C@@H](CC(=O)O)C(=O)N[C@H](C(=O)O)C(C)C)[C@@H](C)O)[C@@H](C)CC)C(=O)[C@H](CCCCN)NC(=O)CCCNC(=O)CC[C@@H]1NC(=O)[C@@H](CCCNC(=N)N)NC(=O)[C@H](CCCNC(=N)N)NC(=O)[C@@H](CCCNC(=N)N)NC(=O)[C@H](CCCNC(=N)N)NC(=O)[C@H](Cc2ccc3ccccc3c2)NC(=O)[C@@H](Cc2ccccc2)NC(=O)[C@H](Cc2ccccc2)NC1=O)C(=O)N[C@@H](CCC(=O)O)C(=O)N[C@H](C(=O)N[C@@H](CC(=O)O)C(=O)N[C@H](C(=O)O)C(C)C)[C@@H](C)O [Compound 62] | 24 |  |  |
| CC(=O)N[C@@H](CCCNC(=N)N)C(=O)N[C@@H](CCCNC(=N)N)C(=O)N[C@@H](CCCNC(=N)N)C(=O)N[C@@H](CCCNC(=N)N)C(=O)N[C@@H](CCCNC(=N)N)C(=O)N[C@@H](CCCNC(=N)N)C(=O)N[C@@H](CCCNC(=N)N)C(=O)N[C@@H](CCCNC(=N)N)C(=O)N[C@@H](CCCNC(=N)N)C(=O)N(CCOCCOCCC(=O)N[C@H](C(=O)N[C@@H](CCC(=O)O)C(=O)N[C@H](C(=O)N[C@H](C(=O)N[C@H](C(=O)O)C(C)C)C(C)C)[C@@H](C)O)C(C)C)CCOCCOCCC(=O)N[C@H](C(=O)N[C@@H](CCC(=O)O)C(=O)N[C@H](C(=O)N[C@H](C(=O)N[C@H](C(=O)O)C(C)C)C(C)C)[C@@H](C)O)C(C)C [Compound 33] | 7.98 ± 1.28 |  |  |
| CC[C@H](C)[C@H](NC(=O)CCOCCOCCN(CCOCCOCCC(=O)N[C@H](C(=O)N[C@@H](CCC(=O)O)C(=O)N[C@H](C(=O)N[C@@H](CC(=O)O)C(=O)N[C@H](C(=O)O)C(C)C)[C@@H](C)O)[C@@H](C)CC)C(=O)[C@H](CCCNC(=N)N)NC(=O)[C@H](CCCNC(=N)N)NC(=O)[C@H](CCCNC(=N)N)NC(=O)[C@H](CCC(N)=O)NC(=O)[C@H](CCCNC(=N)N)NC(=O)[C@H](CCCNC(=N)N)NC(=O)[C@H](CCCCN)NC(=O)[C@H](CCCCN)NC(=O)[C@H](CCCNC(=N)N)NC(=O)CNC(=O)[C@H](Cc1ccc(O)cc1)NC(C)=O)C(=O)N[C@@H](CCC(=O)O)C(=O)N[C@H](C(=O)N[C@@H](CC(=O)O)C(=O)N[C@H](C(=O)O)C(C)C)[C@@H](C)O [Compound 9] |  | 3.82 ± 2.15 | 3.82 ± 2.15 |
| CC(=O)N[C@@H](CCCNC(=N)N)C(=O)N[C@@H](CCCNC(=N)N)C(=O)N[C@@H](CCCNC(=N)N)C(=O)N[C@@H](CCCNC(=N)N)C(=O)N[C@@H](CCCNC(=N)N)C(=O)N[C@@H](CCCNC(=N)N)C(=O)N[C@@H](CCCNC(=N)N)C(=O)N[C@@H](CCCNC(=N)N)C(=O)N[C@@H](CCCNC(=N)N)C(=O)N(CCOCCOCCC(=O)N[C@@H](CCCCN)C(=O)N[C@@H](CCC(=O)O)C(=O)N[C@H](C(=O)N[C@@H](CCCNC(=N)N)C(=O)N[C@H](C(=O)O)C(C)C)[C@@H](C)O)CCOCCOCCC(=O)N[C@@H](CCCCN)C(=O)N[C@@H](CCC(=O)O)C(=O)N[C@H](C(=O)N[C@@H](CCCNC(=N)N)C(=O)N[C@H](C(=O)O)C(C)C)[C@@H](C)O [Compound 29] | 16.7 ± 2.85 |  |  |
| CC[C@H](C)[C@H](NC(=O)CCOCCOCCN(CCOCCOCCC(=O)N[C@H](C(=O)N[C@@H](CCC(=O)O)C(=O)N[C@H](C(=O)N[C@@H](CC(=O)O)C(=O)N[C@H](C(=O)O)C(C)C)[C@@H](C)O)[C@@H](C)CC)C(=O)[C@@H](CCCNC(=N)N)NC(=O)[C@H](CCCNC(=N)N)NC(=O)[C@@H](CCCCN)NC(=O)[C@H](CCCCN)NC(=O)[C@@H](CCCNC(=N)N)NC(=O)CNC(=O)[C@@H](CCCNC(=N)N)NC(=O)[C@H](CCCNC(=N)N)NC(=O)[C@@H](CCCNC(=N)N)NC(C)=O)C(=O)N[C@@H](CCC(=O)O)C(=O)N[C@H](C(=O)N[C@@H](CC(=O)O)C(=O)N[C@H](C(=O)O)C(C)C)[C@@H](C)O [Compound 40] | 24 |  |  |
| CC[C@@H](C)[C@@H](NC(=O)[C@@H](CC(C)C)NC(=O)[C@H]1CCCN1C(C)=O)C(=O)N[C@H](Cc1ccc(O)cc1)C(=O)N[C@H](CC(C)C)C(=O)N[C@H](CCCNC(=N)N)C(=O)N[C@H](CC(C)C)C(=O)N[C@H](CC(C)C)C(=O)N[C@H](CCCNC(=N)N)C(=O)NCC(=O)N[C@H](CCC(N)=O)C(=O)N[C@H](Cc1ccccc1)C(=O)N(CCOCCOCCC(=O)N[C@H](C(=O)N[C@@H](CCC(=O)O)C(=O)N[C@H](C(=O)N[C@@H](CC(=O)O)C(=O)N[C@H](C(=O)O)C(C)C)[C@@H](C)O)[C@@H](C)CC)CCOCCOCCC(=O)N[C@H](C(=O)N[C@@H](CCC(=O)O)C(=O)N[C@H](C(=O)N[C@@H](CC(=O)O)C(=O)N[C@H](C(=O)O)C(C)C)[C@@H](C)O)[C@@H](C)CC [Compound 58] | 24 |  |  |
| CC[C@H](C)[C@H](NC(=O)CCOCCOCCN(CCOCCOCCC(=O)N[C@H](C(=O)N[C@@H](CCC(=O)O)C(=O)N[C@H](C(=O)N[C@@H](CC(=O)O)C(=O)N[C@H](C(=O)O)C(C)C)[C@@H](C)O)[C@@H](C)CC)C(=O)[C@@H](CCCNC(=N)N)NC(=O)[C@@H](CCCNC(=N)N)NC(=O)[C@@H](CCCNC(=N)N)NC(=O)[C@@H](CCCNC(=N)N)NC(=O)[C@@H](CCCNC(=N)N)NC(=O)[C@@H](CCCNC(=N)N)NC(=O)[C@@H](CCCNC(=N)N)NC(=O)[C@@H](CCCNC(=N)N)NC(=O)[C@@H](CCCNC(=N)N)NC(C)=O)C(=O)N[C@@H](CCC(=O)O)C(=O)N[C@H](C(=O)N[C@@H](CC(=O)O)C(=O)N[C@H](C(=O)O)C(C)C)[C@@H](C)O [Compound 44] | 24 |  |  |
